From US4256736A, “Psychopharmacological peptides” (Akzona Incorporated, priority 1978, dated 1981)
“Also recorded” adds a separate entry of the source.

Experiments:
[1] = tested on: rats; experiment: Pole-jumping avoidance behavior (pole climbing test), extinction of the flight response; assay type: in vivo, rat; settings: mean ± S.E.
Text: Rats were trained to jump onto a pole within 5 sec. following presentation of the conditioned stimulus (CS) which was a light on top of the cage. […] 10 trials a day were given in one session with an average intertrial interval of 60 sec. Intervals between trials were 40, 60 and 80 sec. which were presented in a random fashion. Rats were trained for 4 days. Extinction was studied the day following acquisition. During this first post-acquisition session failure to respond within 5 sec. to the CS were not followed by the UCS. All rats were given a 10 trial extinction session. Those animals which made 8 or more avoidances were used for further experimentation. These rats received peptide or placebo (saline) in a volume of 0.5 ml per rat s.c. immediately after completion of the first extinction session. Extinction was studied again 2 and 4 h. later.

[2] = tested on: opiate receptor; settings: in words, prior art section; cited from earlier work
[3] = tested on: rats; settings: in words, prior art section; cited from earlier work
[4] = tested on: rats; experiment: Ambulation of rats; assay type: in vivo, rat; settings: in words, higher dosages
[5] = in words; cited from earlier work
[6] = in words; can be antagonised by naloxone; cited from earlier work
[7] = tested on: melanocytes; settings: in words; cited from earlier work
[8] = 0.03 μg per rat s.c., 0 h (first extinction session, injection immediately after)
[9] = 0.03 μg per rat s.c., 2 h after injection
[10] = 0.03 μg per rat s.c., 4 h after injection
[11] = 0.1 μg per rat s.c., 0 h (first extinction session, injection immediately after)
[12] = 0.1 μg per rat s.c., 2 h after injection
[13] = 0.1 μg per rat s.c., 4 h after injection
[14] = 0.3 μg per rat s.c., 0 h (first extinction session, injection immediately after)
[15] = 0.3 μg per rat s.c., 2 h after injection
[16] = 0.3 μg per rat s.c., 4 h after injection

O=C(CCCN1CCC(O)(c2ccc(Cl)cc2)CC1)c1ccc(F)cc1 [Haloperidol]
Extinction (10 trials) [1, 8]: 9.3 ± 0.3
Extinction (10 trials) [1, 9]: 6.5 ± 0.7
Extinction (10 trials) [1, 10]: 4.0 ± 0.6
Extinction (10 trials) [1, 11]: 9.5 ± 0.4
Extinction (10 trials) [1, 12]: 3.0 ± 0.0
Extinction (10 trials) [1, 13]: 0.5 ± 0.4

D-Ala-Met-enkephalin
affinity for the opiate receptor [2]: Affinity for the opiate receptor

H-GGFMTSEKSQTPLVTL-OH [[Des-Tyr^1]γ-endorphin, H-Gly-Gly-Phe-Met-Thr-Ser-Glu-Lys-Ser-Gln-Thr-Pro-Leu-Val-Thr-Leu-OH]
Extinction (10 trials) ([1]; 0.01 μg per rat s.c., 0 h (first extinction session, injection immediately after)): 9.0 ± 0.3
Extinction (10 trials) ([1]; 0.01 μg per rat s.c., 2 h after injection): 6.2 ± 0.4
Extinction (10 trials) ([1]; 0.01 μg per rat s.c., 4 h after injection): 4.2 ± 0.7
Extinction (10 trials) [1, 11]: 8.8 ± 0.4
Extinction (10 trials) [1, 12]: 2.8 ± 1.0
Extinction (10 trials) [1, 13]: 1.2 ± 0.5
Extinction (10 trials) [1, 14]: 9.3 ± 0.5
Extinction (10 trials) [1, 15]: 3.0 ± 0.7
Extinction (10 trials) [1, 16]: 1.3 ± 0.5

Leu-enkephalin
affinity for the opiate receptor [2]: Affinity for the opiate receptor

Met-enkephalin
effect on extinction of the (active) flight response in the pole-climbing test [3]: inhibit the extinction of the flight response
affinity for the opiate receptor [2]: a certain affinity for the opiate receptor

α-endorphin
effect on extinction of the (active) flight response in the pole-climbing test [3]: inhibit the extinction of the flight response; also recorded: retarded this extinction of the flight response
Extinction (10 trials) [1, 14]: 9.0 ± 0.4
Extinction (10 trials) [1, 15]: 8.3 ± 0.3
Extinction (10 trials) [1, 16]: 7.8 ± 0.3
affinity for the opiate receptor [2]: a certain affinity for the opiate receptor
reduction in ambulation [4]: could not be observed

β-LPH-(61-69)
effect on extinction of the (active) flight response in the pole-climbing test [3]: inhibit the extinction of the flight response
affinity for the opiate receptor [2]: a certain affinity for the opiate receptor

β-Lipotropin
fat-mobilising activity [5]: shows fat-mobilising activity

β-endorphin (YGGFMTSEKSQTPLVTLFKNAIIKNAYKKGE; Beta-endorphin; UniProt P01189 237-267, looked up)
effect on extinction of the (active) flight response in the pole-climbing test [3]: inhibits the extinction of the (active) flight response
analgesic activity [6]: possess analgesic activity

β-melanotropin
influencing the pigmentation of the skin [7]: capable of influencing the pigmentation of the skin by stimulating the melanocytes

γ-endorphin
effect on extinction of the (active) flight response in the pole-climbing test [3]: accelerate the extinction of the flight response
Extinction (10 trials) [1, 8]: 8.8 ± 0.3
Extinction (10 trials) [1, 9]: 6.7 ± 0.8
Extinction (10 trials) [1, 10]: 4.0 ± 0.7
Extinction (10 trials) [1, 11]: 9.3 ± 0.3
Extinction (10 trials) [1, 12]: 5.5 ± 0.6
Extinction (10 trials) [1, 13]: 2.3 ± 0.4
Extinction (10 trials) [1, 14]: 9.0 ± 0.4
Extinction (10 trials) [1, 15]: 4.6 ± 0.3
Extinction (10 trials) [1, 16]: 0.8 ± 0.4
reduction in ambulation [4]: could not be observed

γ-lipotropin
fat-mobilising activity [5]: possesses fat-mobilising properties
